Reference: patent US4950686A, “Anti-mycoplasma agent” (Shionogi & Co., Ltd., priority 1986, dated 1990)
≈ marks a conversion by molar mass, not a printed value. Structures can show the parent of a compound that is named as a salt. Where two headings read alike, the source gives them in different places.

Experiments:
[1] = test system: Mycoplasma hyopneumoniae ST-11 (standard strain); experiment: Anti-mycoplasma activity in vitro (MIC, broth dilution), strain ST-11; format: cell-based; settings: Mh ST-11
Method: (§1) (1) Anti-mycoplasma activity test in vitro
(§2) MIC values of each of Tropolones were measured on the following strains according to the following method.
(b) Mycoplasma hyopneumoniae
Strain: ST-11 (standard strain)
Medium: 850 ml of Hanks' solution supplemented with 0.5% lactoalbumin, 50 ml of 25% yeast, 100 ml of equine serum and 4-6 ml of 0.5% phenol red (pH 7.4-7.6)
(§3) Method: Broth dilution method
Inoculum: Culture which is incubated for 3-4 days and diluted 10 times with the broth if color of the broth becomes yellow then. If it needs over 4 days until color of the broth becomes yellow, it is further subcultured. This is diluted 10 times with the broth to give inoculum.
Assay is done in the same manner as in the above (a).

[2] = test system: Mycoplasma gallisepticum T-7-T (wild strain, tylosin-resistant); experiment: Anti-mycoplasma activity in vitro (MIC, broth dilution), strain T-7-T; format: cell-based; settings: Mg T-7-T, 37° C., 7 days
Method: as §1, §2
(§4) (a) Mycoplasma gallisepticum
(§5) T-7-T (wild strain, tylosin-resistant)
(§6) Medium: Chick PPLO broth supplemented with 20% equine serum (Eiken Kagaku Co., Ltd.)
as §3
(§7) Inoculum: Culture incubated at 37° C. for 24-48 hr which is diluted with broth to 10^6 CCU/ml immediately before the use.
(§8) To 1.6 ml of the broth is added 0.2 ml of an agent which has been subjected to 2-fold dilution and then added 0.2 ml of inoculum, which is incubated at 37° C. for 7 days.

[3] = test system: Mycoplasma gallisepticum S6 (standard strain); experiment: Anti-mycoplasma activity in vitro (MIC, broth dilution), strain S6; format: cell-based; settings: Mg S6, 37° C., 7 days
Method: as §1, §2, §4, §6, §3, §7, §8

[4] = test system: Mycoplasma gallisepticum MR-1 (wild strain, tylosin-resistant); experiment: Anti-mycoplasma activity in vitro (MIC, broth dilution), strain MR-1; format: cell-based; settings: Mg MR-1, 37° C., 7 days
Method: as §1, §2, §4
MR-1 (wild strain, tylosin-resistant)
as §6, §3, §7, §8

[5] = test system: Mycoplasma gallisepticum T-7-T (wild strain, tylosin-resistant); experiment: Mycoplasma gallisepticum air-sac infection method in chicken, strain T-7-T;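 as to Index of Isolation: index = (P×1 + Q×2 + R×3)/S with range 0 to 6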; format: in vivo, Mycoplasma gallisepticum; SPF chicken (white leghorn); settings: 100 mg/kg × once oral, 10 mg/ml sol. b; for Change of air-sac, left: + (chickens) / Change of air-sac, left: ++ (chickens) / Change of air-sac, left: +++ (chickens) / Change of air-sac, left: - (chickens) / Change of air-sac, right: + (chickens) / Change of air-sac, right: ++ (chickens) / Change of air-sac, right: +++ (chickens) / Change of air-sac, right: - (chickens) / Isolation, L (left air-sac) / Isolation, R (right air-sac) / Isolation, T (trachea) / Mycoplasma Isolated Chickens: inoculum 10^2; for Index of Isolation: inoculum 10^2, range 0-6.0; for Index of Disease: inoculum 10^2, range 0-9.0
Method: (§9) (2) Test of Effectiveness Mycoplasma gallisepticum air-sac infection method
as §5
(§10) Inoculation: To the right air-sac of 9 days old SPF chicken (a white leghorn) which has abstained from water and feed one day before is inoculated 0.20-0.25 ml/chicken of fresh mycoplasma culture incubated for 24-48 hr and diluted with broth (usually 100 times). The concentration in Table 2 is shown in a unit of mg/ml.
(§11) Medium: Chick PPLO broth supplemented with 15% equine serum (Eiken Kagaku Co., Ltd.)
(§12) Administration: A compound of this invention dissolved or suspended in the following solution is orally and forcibly administered once by a cannula immediately after the infection.
(§13) Anatomization and Isolation of Microorganism: The chickens are anatomized 5 days after the infection, and the right and left air sacs are investigated whether they are attacked with a disease or not. The change caused by the disease is represented in four degrees; -: no change, +: slight, ++: medium and +++: serious. Microorganism is isolated from the right and left air-sacs and the trachea by using a sterilized applicator.
(§14) Judgement: Judgement is done through an index of an air-sac disease and an index of a microorganism-isolation.
(§15) Index of an air-sac-disease: First, indexes in the right and left air-sacs are separately calculated according to the following formula;
(§16) {degree of disease (0-3)×chickens}/anatomized chickens
(§17) and the index is calculated by the following formula;
(§18) (index of right air-sac)×1+(index of left air-sac)×2
(§19) Index of a microorganism isolation:
(§20) P: chickens from the right air-sac of which microorganism is isolated,
(§21) Q: chickens from the trachea of which microorganism is isolated,
(§22) R: chickens from the left air-sac of which microorganism is isolated, and
(§23) S: chickens investigated.

[6] = test system: Mycoplasma gallisepticum S6 (standard strain); experiment: Mycoplasma gallisepticum air-sac infection method in chicken, strain S6; format: in vivo, Mycoplasma gallisepticum; SPF chicken (white leghorn)
Method: as §9, §10, §11, §12, §13, §14, §15, §16, §17, §18, §19, §20, §21, §22, §23

[7] = Mesomycoplasma hyopneumoniae, read-out: MIC
[8] = Mycoplasmoides gallisepticum, 168 h, read-out: MIC
[9] = 100 mg/kg × once oral, 10 mg/ml sol. b, inoculum 1.2 × 10^6
[10] = 100 mg/kg × once oral, 10 mg/ml sol. b, inoculum 1.2 × 10^6, range 0-6.0
[11] = 100 mg/kg × once oral, 10 mg/ml sol. b, inoculum 1.2 × 10^6, range 0-9.0
[12] = 100 mg/kg × once oral, 10 mg/ml sol. b, inoculum 7.7 × 10^5
[13] = 200 mg/kg × once oral, 20 mg/ml sol. b, inoculum 1.18 × 10^6

`CC(C)(C)C(=O)OCOc1cccccc1=O` [Compound 19, O-(pivaloyloxymethyl)tropolone] was tested, and the MIC [1, 7] was 0.1 µg/mL (≈ 0.423 µM), the MIC [2, 8] was 0.78 µg/mL (≈ 3.3 µM) and the MIC [3, 8] was 0.39 µg/mL (≈ 1.65 µM). For the same molecule, the MIC [4, 8] was 1.56 µg/mL (≈ 6.6 µM), the “Change of air-sac, left: + (chickens)” value [5] was 0 and the “Change of air-sac, left: ++ (chickens)” value [5] was 0. For the same molecule, the “Change of air-sac, left: +++ (chickens)” value [5] was 0, the “Change of air-sac, left: - (chickens)” value [5] was 8 and the “Change of air-sac, right: + (chickens)” value [5] was 0. For the same molecule, the “Change of air-sac, right: ++ (chickens)” value [5] was 0, the “Change of air-sac, right: +++ (chickens)” value [5] was 0 and the “Change of air-sac, right: - (chickens)” value [5] was 8. The “Isolation, L (left air-sac)” value [5] was 2, the “Isolation, R (right air-sac)” value [5] was 1 and the “Isolation, T (trachea)” value [5] was 5. The “Mycoplasma Isolated Chickens” value [5] was 5, the “Index of Isolation” value [5] was 2.00 and the “Index of Disease” value [5] was 0. The “Change of air-sac, left: + (chickens)” value [6, 9] was 0, the “Change of air-sac, left: ++ (chickens)” value [6, 9] was 0 and the “Change of air-sac, left: +++ (chickens)” value [6, 9] was 0. For the same molecule, the “Change of air-sac, left: - (chickens)” value [6, 9] was 8, the “Change of air-sac, right: + (chickens)” value [6, 9] was 0 and the “Change of air-sac, right: ++ (chickens)” value [6, 9] was 0. The “Change of air-sac, right: +++ (chickens)” value [6, 9] was 0, the “Change of air-sac, right: - (chickens)” value [6, 9] was 8 and the “Isolation, L (left air-sac)” value [6, 9] was 1. For the same molecule, the “Isolation, R (right air-sac)” value [6, 9] was 1, the “Isolation, T (trachea)” value [6, 9] was 2 and the “Mycoplasma Isolated Chickens” value [6, 9] was 2. For the same molecule, the “Index of Isolation” value [6, 10] was 1.01 and the “Index of Disease” value [6, 11] was 0.
`COc1ccccc(O)c1=O` [Compound 26, 7-Methoxytropolone] showed an MIC [1, 7] of 3.13 µg/mL (≈ 20.6 µM), an MIC [2, 8] of 12.5 µg/mL (≈ 82.2 µM) and an MIC [3, 8] of 6.25 µg/mL (≈ 41.1 µM). For the same molecule, the MIC [4, 8] was 6.25 µg/mL (≈ 41.1 µM), the “Change of air-sac, left: + (chickens)” value [6, 12] was 0 and the “Change of air-sac, left: ++ (chickens)” value [6, 12] was 0. The “Change of air-sac, left: +++ (chickens)” value [6, 12] was 0, the “Change of air-sac, left: - (chickens)” value [6, 12] was 8 and the “Change of air-sac, right: + (chickens)” value [6, 12] was 4. The “Change of air-sac, right: ++ (chickens)” value [6, 12] was 2, the “Change of air-sac, right: +++ (chickens)” value [6, 12] was 0 and the “Change of air-sac, right: - (chickens)” value [6, 12] was 2. The “Isolation, L (left air-sac)” value [6, 12] was 8, the “Isolation, R (right air-sac)” value [6, 12] was 5 and the “Isolation, T (trachea)” value [6, 12] was 8. The “Mycoplasma Isolated Chickens” value [6, 12] was 8, the “Index of Isolation” value ([6]; 100 mg/kg × once oral, 10 mg/ml sol. b, inoculum 7.7 × 10^5, range 0-6.0) was 4.88 and the “Index of Disease” value ([6]; 100 mg/kg × once oral, 10 mg/ml sol. b, inoculum 7.7 × 10^5, range 0-9.0) was 1.00.
Work on `O=C1OC(Oc2cccccc2=O)c2ccccc21` (centres unmarked) [Compound 23, O-(1,3-Dihydro-3-oxo-1-isobenzofuranyl)tropolone] yielded an MIC [1, 7] of 0.39 µg/mL (≈ 1.53 µM), an MIC [2, 8] of 0.78 µg/mL (≈ 3.07 µM) and an MIC [3, 8] of 0.39 µg/mL (≈ 1.53 µM). For the same molecule, the MIC [4, 8] was 0.78 µg/mL (≈ 3.07 µM), the “Change of air-sac, left: + (chickens)” value [5] was 0 and the “Change of air-sac, left: ++ (chickens)” value [5] was 0. For the same molecule, the “Change of air-sac, left: +++ (chickens)” value [5] was 0, the “Change of air-sac, left: - (chickens)” value [5] was 8 and the “Change of air-sac, right: + (chickens)” value [5] was 0. For the same molecule, the “Change of air-sac, right: ++ (chickens)” value [5] was 0, the “Change of air-sac, right: +++ (chickens)” value [5] was 0 and the “Change of air-sac, right: - (chickens)” value [5] was 8. The “Isolation, L (left air-sac)” value [5] was 6, the “Isolation, R (right air-sac)” value [5] was 5 and the “Isolation, T (trachea)” value [5] was 6. The “Mycoplasma Isolated Chickens” value [5] was 6, the “Index of Isolation” value [5] was 4.20 and the “Index of Disease” value [5] was 0. The “Change of air-sac, left: + (chickens)” value [6, 9] was 0, the “Change of air-sac, left: ++ (chickens)” value [6, 9] was 0 and the “Change of air-sac, left: +++ (chickens)” value [6, 9] was 0. The “Change of air-sac, left: - (chickens)” value [6, 9] was 8, the “Change of air-sac, right: + (chickens)” value [6, 9] was 0 and the “Change of air-sac, right: ++ (chickens)” value [6, 9] was 0. The “Change of air-sac, right: +++ (chickens)” value [6, 9] was 0, the “Change of air-sac, right: - (chickens)” value [6, 9] was 8 and the “Isolation, L (left air-sac)” value [6, 9] was 1. For the same molecule, the “Isolation, R (right air-sac)” value [6, 9] was 1, the “Isolation, T (trachea)” value [6, 9] was 4 and the “Mycoplasma Isolated Chickens” value [6, 9] was 4. For the same molecule, the “Index of Isolation” value [6, 10] was 1.90 and the “Index of Disease” value [6, 11] was 0.
With `Cc1ccccc(O)c1=O` [Compound 28, 7-Methyltropolone] the MIC [1, 7] was 0.1 µg/mL (≈ 0.734 µM), the MIC [2, 8] was 0.39 µg/mL (≈ 2.86 µM) and the MIC [3, 8] was 0.1 µg/mL (≈ 0.734 µM). For the same molecule, the MIC [4, 8] was 0.2 µg/mL (≈ 1.47 µM).
Molecule `O=c1cccccc1O` [Compound 12, Tropolone L-arginine salt] has an MIC [1] of 1.56 µg/mL, an MIC [2] of 3.13 µg/mL and an MIC [3] of 3.13 µg/mL. For the same molecule, the MIC [4] was 3.13 µg/mL, the “Change of air-sac, left: + (chickens)” value [6, 13] was 0 and the “Change of air-sac, left: ++ (chickens)” value [6, 13] was 0. The “Change of air-sac, left: +++ (chickens)” value [6, 13] was 0, the “Change of air-sac, left: - (chickens)” value [6, 13] was 5 and the “Change of air-sac, right: + (chickens)” value [6, 13] was 1. For the same molecule, the “Change of air-sac, right: ++ (chickens)” value [6, 13] was 0, the “Change of air-sac, right: +++ (chickens)” value [6, 13] was 0 and the “Change of air-sac, right: - (chickens)” value [6, 13] was 4. For the same molecule, the “Isolation, L (left air-sac)” value [6, 13] was 0, the “Isolation, R (right air-sac)” value [6, 13] was 2 and the “Isolation, T (trachea)” value [6, 13] was 1. For the same molecule, the “Mycoplasma Isolated Chickens” value [6, 13] was 2, the “Index of Isolation” value ([6]; 200 mg/kg × once oral, 20 mg/ml sol. b, inoculum 1.18 × 10^6, range 0-6.0) was 0.8 and the “Index of Disease” value ([6]; 200 mg/kg × once oral, 20 mg/ml sol. b, inoculum 1.18 × 10^6, range 0-9.0) was 0.2.
